{
  "source": "ChEMBL document CHEMBL1159073",
  "about": "“Inhibition of IKK-beta: a new development in the mechanism of the anti-obesity effects of PTP1B inhibitors SA18 and SA32” (Bioorg Med Chem Lett, 2010)",
  "key": {"[1]": {"target": "T1, Inhibitor of nuclear factor kappa-B kinase subunit beta (Homo sapiens, UniProt O14920)", "T1 sequence (O14920 whole entry)": "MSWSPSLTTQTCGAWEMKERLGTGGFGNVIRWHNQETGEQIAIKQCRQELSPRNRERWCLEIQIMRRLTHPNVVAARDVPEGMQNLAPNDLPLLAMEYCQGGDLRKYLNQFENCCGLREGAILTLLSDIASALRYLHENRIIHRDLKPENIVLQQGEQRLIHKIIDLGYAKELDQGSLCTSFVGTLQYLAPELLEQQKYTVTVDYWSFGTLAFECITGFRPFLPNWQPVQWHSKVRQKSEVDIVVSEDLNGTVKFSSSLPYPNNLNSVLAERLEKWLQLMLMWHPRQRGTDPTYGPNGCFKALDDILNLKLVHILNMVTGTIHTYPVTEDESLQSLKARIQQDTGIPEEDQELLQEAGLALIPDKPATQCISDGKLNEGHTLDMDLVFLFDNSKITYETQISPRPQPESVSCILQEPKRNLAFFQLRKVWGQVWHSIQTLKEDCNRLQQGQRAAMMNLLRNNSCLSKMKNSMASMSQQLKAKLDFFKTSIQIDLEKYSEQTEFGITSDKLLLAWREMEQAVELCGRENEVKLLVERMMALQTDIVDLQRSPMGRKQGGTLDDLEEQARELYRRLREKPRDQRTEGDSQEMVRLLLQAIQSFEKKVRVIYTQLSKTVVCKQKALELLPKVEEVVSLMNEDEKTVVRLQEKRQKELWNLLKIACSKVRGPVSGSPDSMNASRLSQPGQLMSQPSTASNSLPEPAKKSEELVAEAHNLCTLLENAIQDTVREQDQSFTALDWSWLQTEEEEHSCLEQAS", "assay": "Inhibition of IKK-beta by tome resolved fluorescence assay"}, "Mus musculus [2]": {"test_system": "Mus musculus", "assay": "Antiobesity activity in high fat diet-induced obese C57BL/6J Jms Slc mouse model assessed as change in body weight administered through diet for 28 days (reference value: 33.4+/-2.8)", "format": "functional"}, "Mus musculus [3]": {"test_system": "Mus musculus", "assay": "Antiobesity activity in high fat diet-induced obese C57BL/6J Jms Slc mouse model assessed as retroperitoneal adipose tissue weight administered through diet for 28 days (reference value: 0.51+/-0.11)", "format": "functional"}, "Mus musculus [4]": {"test_system": "Mus musculus", "assay": "Antiobesity activity in high fat diet-induced obese C57BL/6J Jms Slc mouse model assessed as blood nonesterified free fatty acid level administered through diet for 28 days (reference value: 0.35+/-0.09)", "format": "functional"}, "Mus musculus [5]": {"species_on_record": "Mus musculus", "assay": "Inhibition of IkappaB-alpha degradation in LPS-stimulated mouse […] cells at 50 uM pretreated 30 mins before LPS containing cytokine mixture challenge measured by Western blotting", "format": "functional"}, "Mus musculus [6]": {"test_system": "Mus musculus", "assay": "Antiobesity activity in high fat diet-induced obese C57BL/6J Jms Slc mouse model assessed as blood triglyceride level administered through diet for 28 days (reference value: 63+/-32)", "format": "functional"}, "3T3-L1 [7]": {"test_system": "3T3-L1", "assay": "Inhibition of IkappaB-alpha degradation in LPS-stimulated mouse 3T3L1 cells at 50 uM pretreated 30 mins before LPS containing cytokine mixture challenge measured after 60 mins by Western blotting", "format": "functional, cell-based"}, "Mus musculus [8]": {"test_system": "Mus musculus", "assay": "Antiobesity activity in high fat diet-induced obese C57BL/6J Jms Slc mouse model assessed as epididymal adipose tissue weight administered through diet for 28 days (reference value: 1.8+/-0.49)", "format": "functional"}, "Mus musculus [9]": {"test_system": "Mus musculus", "assay": "Antiobesity activity in high fat diet-induced obese C57BL/6J Jms Slc mouse model assessed as blood total cholesterol level administered through diet for 28 days (reference value: 141+/-10)", "format": "functional"}, "3T3-L1 [10]": {"test_system": "3T3-L1", "assay": "Inhibition of IkappaB-alpha degradation in LPS-stimulated mouse 3T3L1 cells at 50 uM pretreated 30 mins before LPS containing cytokine mixture challenge measured after 30 mins by Western blotting", "format": "functional, cell-based"}},
  "note": "Active and inactive are the calls of the source. No cut-off for these calls is given here.",
  "data": [
    {"compound": "O=C(Nc1cc(Cl)cc2c1[nH]c1cnccc12)c1cccnc1", "values": [
      {"measurement": "IC50", "setting": "[1]", "result": 150, "unit": "nM"}
    ]},
    {"compound": "O=C(O)c1cc(-c2ccccc2)cc(Cc2cc(-c3ccccc3)cc(C(=O)O)c2O)c1O", "values": [
      {"measurement": "Activity", "setting": "Mus musculus [2]", "result": 28.9, "unit": "g"},
      {"measurement": "Activity", "setting": "Mus musculus [3]", "result": 0.26, "unit": "g"},
      {"measurement": "Activity", "setting": "Mus musculus [4]", "result": 0.14, "unit": "mEq/L"},
      {"measurement": "inhibition", "setting": "Mus musculus [5]", "result": "Active"},
      {"measurement": "Activity", "setting": "Mus musculus [6]", "result": 48, "unit": "mg/dL"},
      {"measurement": "inhibition", "setting": "3T3-L1 [7]", "result": "Active"},
      {"measurement": "Activity", "setting": "Mus musculus [8]", "result": 0.83, "unit": "g"},
      {"measurement": "Activity", "setting": "Mus musculus [9]", "result": 133, "unit": "mg/dL"},
      {"measurement": "inhibition", "setting": "3T3-L1 [10]", "result": "Active"}
    ]},
    {"compound": "O=C(O)c1cc(Cc2cc(C(=O)O)c(O)c(-c3ccccc3)c2)cc(-c2ccccc2)c1O", "values": [
      {"measurement": "Activity", "setting": "Mus musculus [2]", "result": 29.2, "unit": "g"},
      {"measurement": "Activity", "setting": "Mus musculus [3]", "result": 0.26, "unit": "g"},
      {"measurement": "Activity", "setting": "Mus musculus [4]", "result": 0.24, "unit": "mEq/L"},
      {"measurement": "inhibition", "setting": "Mus musculus [5]", "result": "Active"},
      {"measurement": "Activity", "setting": "Mus musculus [6]", "result": 42, "unit": "mg/dL"},
      {"measurement": "inhibition", "setting": "3T3-L1 [7]", "result": "Active"},
      {"measurement": "Activity", "setting": "Mus musculus [8]", "result": 0.86, "unit": "g"},
      {"measurement": "Activity", "setting": "Mus musculus [9]", "result": 129, "unit": "mg/dL"},
      {"measurement": "inhibition", "setting": "3T3-L1 [10]", "result": "Active"}
    ]}
  ]
}
